Measurements published in PMC4641600, “Novel Activities of Select NSAID R-Enantiomers against Rac1 and Cdc42 GTPases” (PLoS ONE, 2015).
Read-outs that look alike come from different tables or passages of the source. Each block holds one molecule with its values, some of them ahead of it.

Assays:
H-Ras wt = H-Ras wt (Homo sapiens, UniProt P01112); test: Dose response, BODIPY-GTP binding; conditions: 10 nM to 100 µM
Description: (§1) For multiplex analyses of small GTPases, 4 μm diameter glutathione-beads (GSH-beads) distinguished by seven different intensities of red fluorescence were used according to our previously described protocols. The GST-GTPases included the following eight Ras-related small GTPases: Rab2 wt, Rab7 wt, Cdc42 wt, Cdc42Q61L activating mutant, H-Ras wt, H-RasG12V, Rac1 wt and Rac1Q61L activating mutant. Briefly, Prestwick Chemical Library® compounds were tested at 10 μM compound and 1% DMSO final concentrations. After a 10 min pre-incubation with the compound BODIPY- FL-GTP (100 nM final) was added to each well and bead associated fluorescence was measured. Sample analysis was conducted with a HyperCyt® high throughput flow cytometry platform. Flow cytometric light scatter at 488 nm and fluorescence emission at 530 +/− 20 nm (FL1) and 665 +/− 10 nm (FL8) were collected on a Cyan ADP flow cytometer (Beckman Coulter, Fullerton, CA). IDLQuery software was used to determine the compound activity in each well. Gating based on forward scatter (FS) and side scatter (SS) parameters was used to identify singlet bead populations. Gating based on FL8 emission distinguishes the beads coated with different proteins, and the median FL1 fluorescence per bead population were calculated. A compound was considered a “potential active” if the change in BODIPY-FL-GTP binding differed greater than 20% from that measured in DMSO treated controls.
(§2) Test compounds identified for follow-up after the primary screen were tested at dilutions ranging from 10 nM to 100 μM final concentration against individual GTPases in multiplex and single-plex assays. Compounds tested in dose response assays were serially diluted 1:3 a total of eight times from a starting concentration of 10 mM giving a 9-point dilution series in DMSO.
(§3) bConfirmatory screens entailed dose response assays conducted in a multiplex format with eight GTPases tested as for primary screen. BODIPY-GTP-binding activity was
(§4) measured in the presence of 10 nM to 100 µM of each of 11 test compounds (4 primary screen hits and 7 additional NSAIDs considered to have chemical similarity to GTPase
(§5) active compounds). GST-GFP coated beads served as a control to detect non-specific dissociation or denaturation caused by compound addition–none of the tested NSAIDs had
(§6) any effect on bead-GST-protein binding. EC50 values were determined using Prism to determine dose response fits as shown in Figure 1 of main text; fits have R2 > 0.9. Active
(§7) compounds based on same definition used as in primary screena. […]

COX-1 = conditions: IC50 values not calculated; thromboxane B2, collagen-stimulated human platelets; cited from earlier work
H-RasG12V = H-RasG12V (Homo sapiens, UniProt P01112, G12V); test: Dose response, BODIPY-GTP binding; conditions: 10 nM to 100 µM
Description: as §1, §2, §3, §4, §5, §6, §7
(§8) ‡A well-characterized selective Cdc42 inhibitor served as a positive control.

[1] = system: Rab2 wt, Rab7 wt, Cdc42 wt, Cdc42Q61L, H-Ras wt, H-RasG12V, Rac1 wt and Rac1Q61L; test: Primary multiplex screen, BODIPY-FL-GTP binding on bead-bound GTPases (flow cytometry)
OvCa429 cells = conditions: 300 μM, relative to 6-MNA
Rab7 = Rab7 (Homo sapiens, UniProt P51149); test: Dose response, BODIPY-GTP binding; conditions: 10 nM to 100 µM
Chain of Rab7 (P51149 whole entry, species assumed): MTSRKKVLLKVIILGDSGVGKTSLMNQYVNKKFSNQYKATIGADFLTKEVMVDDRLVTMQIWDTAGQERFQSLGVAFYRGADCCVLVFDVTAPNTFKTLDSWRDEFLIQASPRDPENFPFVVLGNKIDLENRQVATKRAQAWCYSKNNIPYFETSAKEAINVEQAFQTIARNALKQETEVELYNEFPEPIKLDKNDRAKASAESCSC

[2] = system: Tiam1 membrane localization; test: Tiam1 immunolocalization, OvCa433 cells; format: cell-based, human
Description: OvCa433 were plated on coverslips, treated with 300 μM NSAIDs for 1 h, fixed with 3% paraformaldehyde and immunostained for Rac1 or Tiam1. Actin was visualized with rhodamine phalloidin from Invitrogen (F432). Cells were imaged on a Zeiss LSM510 using a 63x objective and quantified using Image J.
Rac1 and Tiam1 antibodies were confirmed in our hands to recognize single protein species of the predicted molecular weight by immunoblot.

OvCa433 cells = conditions: 0-300 µM, 48 h
[3] = system: Rac1 membrane localization; test: Rac1 immunolocalization, OvCa433 cells; format: cell-based, human
Ras-related GTPases = test: Confirmatory dose response assays on eight Ras-related GTPases; format: binding
Description: as §1, §2, §3, §4, §5, §6, §7, §8

Rac1 [4] = target: T1, Rac1 (Mus musculus, UniProt P63001); test: GLISA, Swiss 3T3 cells; format: cell-based; conditions: for EGF-mediated Rac1 activation: 300 μM
T1 construct: endogenous in cells; host or cells: Swiss 3T3

[5] = system: Rac1 and Tiam1 protein levels; test: Immunoblot of protein levels; format: cell-based, human
Description: Cells were stimulated with EGF at a final concentration of 1 nM for 10 min. Cells were lysed in a RIPA buffer consisting of 50 mM Tris pH 7.4, 1% NP-40, 0.25% sodium deoxycholate, 150 mM NaCl, 1 mM EDTA, 1 mM PMSF, 1 mM sodium vanadate, 10 mM sodium fluoride, 1 μg/mL each of pepstatin, aprotinin and leupeptin, 10 mM sodium pyrophosphate and 10 mM beta-glycerophosphate.
N = 3. See also Figure D in S1 File for time dependent loss of Rac1 membrane localization. N = 3 (B) Quantification of image intensity using Image J of 3 representative confocal images as shown in panel (A) containing 20–30 cells/field normalized to actin and untreated controls. (C) Western blot analyses of lysates from cells treated with 300 μM compound as indicated for 24 h as compared to untreated controls. […] Blots were probed for Tiam1 (200 kDa), GAPDH (37 kDa), Rac1 (20 kDa), as a loading control. (D) Quantification of image intensity using Image J. Each marker was normalized to GAPDH and untreated controls. N = 3.

Rab2 = Rab2 (Homo sapiens, UniProt P61019); test: Dose response, BODIPY-GTP binding; conditions: 10 nM to 100 µM
Chain of Rab2 (P61019 whole entry, species assumed): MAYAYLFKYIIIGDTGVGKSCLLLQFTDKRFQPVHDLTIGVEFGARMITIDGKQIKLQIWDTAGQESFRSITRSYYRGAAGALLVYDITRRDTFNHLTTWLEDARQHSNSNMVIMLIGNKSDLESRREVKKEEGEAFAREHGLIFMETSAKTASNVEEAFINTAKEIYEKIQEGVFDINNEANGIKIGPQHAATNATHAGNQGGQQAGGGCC

[6] = target: Cdc42Q61L activating mutant (Homo sapiens, UniProt P60953, Q61L); test: Dose response, BODIPY-GTP binding; conditions: 10 nM to 100 µM; read-out: Cdc42 (act) EC50
Chain of Cdc42Q61L activating mutant (P60953 whole entry Q61L): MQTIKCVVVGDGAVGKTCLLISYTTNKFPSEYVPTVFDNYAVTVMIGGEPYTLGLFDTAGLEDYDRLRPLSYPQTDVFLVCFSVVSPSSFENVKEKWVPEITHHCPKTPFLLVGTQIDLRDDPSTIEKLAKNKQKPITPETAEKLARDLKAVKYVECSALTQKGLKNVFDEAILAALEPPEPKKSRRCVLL

Cdc42 [7] = conditions: cited from earlier work
Cdc42 wt = Cdc42 wt (Homo sapiens, UniProt P60953); test: Dose response, BODIPY-GTP binding; conditions: 10 nM to 100 µM
Chain of Cdc42 wt (P60953 whole entry): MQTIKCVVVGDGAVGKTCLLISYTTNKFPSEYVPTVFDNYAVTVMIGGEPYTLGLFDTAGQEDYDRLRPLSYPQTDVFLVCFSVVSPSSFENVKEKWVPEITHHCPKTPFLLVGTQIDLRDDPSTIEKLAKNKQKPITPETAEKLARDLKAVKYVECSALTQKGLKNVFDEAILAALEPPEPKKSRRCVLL

[8] = system: migration Rac1/Cdc42 dependent; design: method as in ref 28 (a number printed in a supplementary file, which may have a reference list of its own: not looked up in the article's list); conditions: read-out: IC50 migration Rac1/Cdc42 dependent (est); cited from earlier work
human COX-1 = target: T2, human COX-1 (Homo sapiens, UniProt P23219); test: Cyclooxygenase assay (CEREP), PGE2 formation; format: biochemical; conditions: recombinant enzyme, 4 μM arachidonic acid
T2 construct: purchased CEREP Laboratories (contract assay); host or cells: Sf-9
T2 sequence (P23219 24-599): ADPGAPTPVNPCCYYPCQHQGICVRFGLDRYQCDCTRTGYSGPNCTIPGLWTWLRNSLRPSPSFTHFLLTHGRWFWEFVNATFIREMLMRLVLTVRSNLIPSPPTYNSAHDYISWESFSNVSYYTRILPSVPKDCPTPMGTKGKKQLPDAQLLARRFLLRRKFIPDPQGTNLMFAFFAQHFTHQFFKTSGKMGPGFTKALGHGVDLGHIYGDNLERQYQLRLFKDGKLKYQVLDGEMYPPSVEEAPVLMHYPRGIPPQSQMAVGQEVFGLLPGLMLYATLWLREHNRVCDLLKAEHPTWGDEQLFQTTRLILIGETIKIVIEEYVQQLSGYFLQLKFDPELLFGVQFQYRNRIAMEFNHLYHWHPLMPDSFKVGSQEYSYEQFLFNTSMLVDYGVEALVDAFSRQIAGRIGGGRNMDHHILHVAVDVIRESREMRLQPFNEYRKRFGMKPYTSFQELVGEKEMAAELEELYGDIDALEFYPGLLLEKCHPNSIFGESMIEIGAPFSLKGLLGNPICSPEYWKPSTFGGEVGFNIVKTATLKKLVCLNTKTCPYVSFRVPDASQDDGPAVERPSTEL

[9] = target: Rac1Q61L activating mutant (Homo sapiens, UniProt P63000, Q61L); test: Dose response, BODIPY-GTP binding; conditions: 10 nM to 100 µM
human COX-2 = target: T3, human COX-2 (Homo sapiens, UniProt P35354); test: Cyclooxygenase assay (CEREP), PGE2 formation; format: biochemical; conditions: recombinant enzyme, 4 μM arachidonic acid
T3 construct: purchased CEREP Laboratories (contract assay); host or cells: Sf-9
T3 sequence (P35354 18-604): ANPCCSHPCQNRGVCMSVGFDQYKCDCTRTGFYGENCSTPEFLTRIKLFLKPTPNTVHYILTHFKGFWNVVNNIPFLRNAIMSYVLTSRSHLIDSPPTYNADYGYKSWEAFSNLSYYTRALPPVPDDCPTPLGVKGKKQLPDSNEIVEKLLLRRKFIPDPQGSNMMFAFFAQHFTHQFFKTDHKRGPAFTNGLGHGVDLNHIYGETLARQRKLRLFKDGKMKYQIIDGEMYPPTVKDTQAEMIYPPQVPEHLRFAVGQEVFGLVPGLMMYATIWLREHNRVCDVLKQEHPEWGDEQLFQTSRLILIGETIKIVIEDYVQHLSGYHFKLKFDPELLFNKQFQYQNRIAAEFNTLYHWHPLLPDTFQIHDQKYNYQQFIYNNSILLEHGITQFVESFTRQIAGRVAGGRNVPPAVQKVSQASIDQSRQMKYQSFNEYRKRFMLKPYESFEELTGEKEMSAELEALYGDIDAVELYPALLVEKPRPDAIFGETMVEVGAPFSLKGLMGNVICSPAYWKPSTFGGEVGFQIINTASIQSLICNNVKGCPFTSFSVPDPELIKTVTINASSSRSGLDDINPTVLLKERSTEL

Rac1 wt = Rac1 wt (Homo sapiens, UniProt P63000); test: Dose response, BODIPY-GTP binding; conditions: 10 nM to 100 µM
[10] = system: OvCa429 and OvCa433 cells; test: Boyden chamber cell migration assay; format: cell-based, human; conditions: estimated from limited dose response data; read-out: IC50 migration Rac1/Cdc42 dependent (est)
Rac1 [11] = conditions: cited from earlier work
purified ovine COX-1 = system: purified ovine COX-1; design: method as in ref 14 (a number printed in a supplementary file, which may have a reference list of its own: not looked up in the article's list); conditions: purified ovine enzyme; cited from earlier work
Cdc42 [12] = target: T4, Cdc42 (Homo sapiens, UniProt P60953); test: G-trap flow cytometric effector binding assay, HeLa cells; format: cell-based; conditions: ketorolac enantiomers, EGF stimulation, read-out: EC50 against Cdc42
T4 construct: endogenous in cells; host or cells: HeLa
T4 sequence (P60953 whole entry): as the sequence (P60953 whole entry) above

[13] = system: migration Rac1/Cdc42 dependent; test: Migration IC50 (Table F); format: cell-based; conditions: ketorolac, calculated by GraphPad Prism5; read-out: IC50 migration Rac1/Cdc42 dependent (est)
purified ovine COX-2 = system: purified ovine COX-2; design: method as in ref 14 (a number printed in a supplementary file, which may have a reference list of its own: not looked up in the article's list); conditions: purified ovine enzyme; cited from earlier work
Cdc42 [14] = target: T5, Cdc42 (Mus musculus, UniProt P60766); test: GLISA, Swiss 3T3 cells; format: cell-based; conditions: 1 h pretreatment, EGF stimulation
T5 construct: endogenous in cells; host or cells: Swiss 3T3
T5 sequence (P60766 whole entry): as the sequence (P60953 whole entry) above

COX-2 = system: COX-2; design: method as in ref 15 (a number printed in a supplementary file, which may have a reference list of its own: not looked up in the article's list); conditions: ovine seminal vesicles or human whole blood; cited from earlier work
Rac1 [15] = target: T6, Rac1 (Homo sapiens, UniProt P63000); test: G-trap flow cytometric effector binding assay, HeLa cells; format: cell-based; conditions: ketorolac enantiomers, EGF stimulation, read-out: EC50 against Rac1
T6 construct: endogenous in cells; host or cells: HeLa

[16] = immunofluorescence quantified using ImageJ

Structure (SMILES): COc1ccc2cc([C@@H](C)C(=O)O)ccc2c1 [R-naproxen]
H-Ras wt EC50 (H-Ras wt): inactive | COX-1 Previously Published (COX-1): R>S | H-Ras (act) EC50 (H-RasG12V): inactive | primary screen outcome ([1]; 10 μM compound): positive and hit | Primary Screen Hit ([1]; single dose 10 µM, change in BODIPY-GTP binding on any one GTPase): Active | invadopodia formation (OvCa429 cells): inhibited | Rab7 EC50 (Rab7): inactive | Tiam1 membrane localization ([2]; 300 μM): substantially reduced | Tiam1 GEF PM localiz. [2, 16]: 32% | cytotoxicity (OvCa433 cells): not cytotoxic | Rac1 membrane localization ([3]; 300 μM): substantially reduced | Rac PM Localiz. [3, 16]: 34% | activity against the GTPases in confirmatory dose response assays (words) (Ras-related GTPases; 10 nM to 100 µM): varying activity levels | EC50 (Ras-related GTPases; additional confirmatory dose response assays, different conditions): 3000 to 18000 nM | EGF-mediated Rac1 activation (Rac1 [4]; 15 min pretreatment): significantly inhibited | EGF-mediated Rac1 activation (Rac1 [4]; 1 h pretreatment): reduced activation to basal unstimulated levels | inhibition at 300 µM (Rac1 [4]; Swiss-3T3, at 300 µM): 100% | total Rac1 or Tiam1 protein levels ([5]; 300 μM, 24 h, immunoblot): did not alter | Rac protein expression ([5]; immunoblot analysis): No change | Rab2 EC50 (Rab2): inactive

H-Ras wt EC50 (H-Ras wt): inactive | H-Ras (act) EC50 (H-RasG12V): inactive | EC50 [6]: 5400 nM | Rab7 EC50 (Rab7): inactive | EC50 (Cdc42 wt): 2600 nM | IC50 (human COX-1): 1800 nM | Rac1 (act) EC50 [9]: inactive | IC50 (human COX-2): 580 nM | Rac1 wt EC50 (Rac1 wt): inactive | Rab2 EC50 (Rab2): inactive
Structure (SMILES): COc1ccc(C2CC(c3ccccc3)=NN2c2ccc(S(N)(=O)=O)cc2)cc1 (centres unmarked) [CID2950007/ML141]
IC50 (Cdc42 [7]): 2100 to 2600 nM | IC50 [8]: ~10000 nM

Structure (SMILES): CCN(CC)CCCC(C)Nc1nc(C)cc(Nc2ccc3nc(C)cc(N)c3c2)n1 (centres unmarked) [NSC23766]
IC50 [10]: < 30000 nM | IC50 (Rac1 [11]): […]

EC50 (Cdc42 [12]): 1070 nM | IC50 [13]: 7000 nM | IC50 (human COX-1): 990 nM | dose of maximal inhibitory activity against Rac1 (Rac1 [4]; 1 h preincubation, EGF stimulation): 50 µM | dose of maximal inhibition of Cdc42 activation (Cdc42 [14]): 10 µM | IC50 (human COX-2): > 100000 nM | EC50 (Rac1 [15]): 574 nM
Structure (SMILES): O=C(c1ccccc1)c1ccc2n1CC[C@H]2C(=O)O [R-ketorolac]
COX-1 IC50 Previously Published (purified ovine COX-1): Not sig | COX-2 IC50 Previously Published (purified ovine COX-2): Not sig | COX-2 IC50 Previously Published (COX-2): Not sig
